This is an account of results in patent publication US9302988B2, “Fluoromethyl-substituted pyrrole carboxamides” (GRÜNENTHAL GMBH, priority 2012, dated 2016).

The structures appear in SMILES notation.

The assay deals with T1, Human CaV2.2 channels (Homo sapiens, UniProt Q00975).
T1 construct: expressed in transfected cells
T1 sequence (Q00975 whole entry): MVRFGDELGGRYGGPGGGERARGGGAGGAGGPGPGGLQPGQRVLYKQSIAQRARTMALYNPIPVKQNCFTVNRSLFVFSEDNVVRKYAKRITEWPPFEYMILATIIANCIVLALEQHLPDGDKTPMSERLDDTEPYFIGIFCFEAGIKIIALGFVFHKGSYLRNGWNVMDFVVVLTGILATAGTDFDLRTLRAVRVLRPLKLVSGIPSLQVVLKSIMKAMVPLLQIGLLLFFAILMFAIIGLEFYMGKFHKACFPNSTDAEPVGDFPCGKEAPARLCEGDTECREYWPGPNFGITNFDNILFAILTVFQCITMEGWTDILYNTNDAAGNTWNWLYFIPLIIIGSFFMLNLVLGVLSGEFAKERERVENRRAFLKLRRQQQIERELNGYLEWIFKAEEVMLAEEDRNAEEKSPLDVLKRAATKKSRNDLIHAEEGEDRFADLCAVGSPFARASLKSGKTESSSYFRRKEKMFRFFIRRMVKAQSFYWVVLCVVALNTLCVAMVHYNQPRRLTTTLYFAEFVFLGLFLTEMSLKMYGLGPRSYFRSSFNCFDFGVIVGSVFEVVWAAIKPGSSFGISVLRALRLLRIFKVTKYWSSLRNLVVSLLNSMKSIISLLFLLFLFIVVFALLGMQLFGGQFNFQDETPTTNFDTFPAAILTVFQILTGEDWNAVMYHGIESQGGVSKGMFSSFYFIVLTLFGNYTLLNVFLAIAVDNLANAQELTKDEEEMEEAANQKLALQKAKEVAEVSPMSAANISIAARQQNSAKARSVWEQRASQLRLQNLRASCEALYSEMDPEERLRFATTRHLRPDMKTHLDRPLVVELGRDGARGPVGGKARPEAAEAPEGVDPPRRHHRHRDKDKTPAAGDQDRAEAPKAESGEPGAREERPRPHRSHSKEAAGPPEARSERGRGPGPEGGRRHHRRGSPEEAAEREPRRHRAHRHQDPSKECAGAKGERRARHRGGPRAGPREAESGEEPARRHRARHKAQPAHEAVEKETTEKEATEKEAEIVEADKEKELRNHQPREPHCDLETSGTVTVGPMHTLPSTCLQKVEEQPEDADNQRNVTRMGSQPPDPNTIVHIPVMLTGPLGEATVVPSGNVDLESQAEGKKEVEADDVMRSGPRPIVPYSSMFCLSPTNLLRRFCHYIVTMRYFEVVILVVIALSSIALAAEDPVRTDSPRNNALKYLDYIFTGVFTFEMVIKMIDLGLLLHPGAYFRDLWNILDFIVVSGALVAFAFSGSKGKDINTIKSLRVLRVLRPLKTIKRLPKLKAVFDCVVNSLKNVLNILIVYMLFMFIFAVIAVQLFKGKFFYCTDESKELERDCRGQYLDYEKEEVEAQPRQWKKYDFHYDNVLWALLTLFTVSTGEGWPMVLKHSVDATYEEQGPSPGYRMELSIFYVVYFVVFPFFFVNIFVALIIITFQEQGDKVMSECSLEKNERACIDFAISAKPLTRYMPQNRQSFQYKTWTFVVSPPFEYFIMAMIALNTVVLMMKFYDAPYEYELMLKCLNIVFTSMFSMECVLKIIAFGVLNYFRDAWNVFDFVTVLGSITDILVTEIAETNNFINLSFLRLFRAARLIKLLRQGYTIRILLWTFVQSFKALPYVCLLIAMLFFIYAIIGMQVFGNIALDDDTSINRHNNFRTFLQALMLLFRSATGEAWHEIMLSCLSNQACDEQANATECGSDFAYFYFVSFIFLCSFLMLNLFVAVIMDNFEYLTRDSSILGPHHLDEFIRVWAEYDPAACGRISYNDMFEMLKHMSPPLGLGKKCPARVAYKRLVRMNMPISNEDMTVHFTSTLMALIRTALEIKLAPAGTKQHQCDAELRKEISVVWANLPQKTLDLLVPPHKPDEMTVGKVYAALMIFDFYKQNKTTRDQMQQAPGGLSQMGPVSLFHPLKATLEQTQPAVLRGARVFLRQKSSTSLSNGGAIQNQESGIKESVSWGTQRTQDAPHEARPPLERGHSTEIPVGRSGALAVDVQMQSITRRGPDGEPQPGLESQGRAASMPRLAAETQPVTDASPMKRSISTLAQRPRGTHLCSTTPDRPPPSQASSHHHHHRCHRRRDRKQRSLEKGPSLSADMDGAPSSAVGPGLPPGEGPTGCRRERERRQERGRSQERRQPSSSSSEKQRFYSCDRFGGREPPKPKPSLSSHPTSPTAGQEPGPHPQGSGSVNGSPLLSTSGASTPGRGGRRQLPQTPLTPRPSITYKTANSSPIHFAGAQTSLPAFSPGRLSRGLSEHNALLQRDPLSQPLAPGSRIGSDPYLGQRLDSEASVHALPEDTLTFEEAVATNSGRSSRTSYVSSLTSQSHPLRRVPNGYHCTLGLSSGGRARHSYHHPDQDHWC
T1 sequence (P54289 25-1103, further chain): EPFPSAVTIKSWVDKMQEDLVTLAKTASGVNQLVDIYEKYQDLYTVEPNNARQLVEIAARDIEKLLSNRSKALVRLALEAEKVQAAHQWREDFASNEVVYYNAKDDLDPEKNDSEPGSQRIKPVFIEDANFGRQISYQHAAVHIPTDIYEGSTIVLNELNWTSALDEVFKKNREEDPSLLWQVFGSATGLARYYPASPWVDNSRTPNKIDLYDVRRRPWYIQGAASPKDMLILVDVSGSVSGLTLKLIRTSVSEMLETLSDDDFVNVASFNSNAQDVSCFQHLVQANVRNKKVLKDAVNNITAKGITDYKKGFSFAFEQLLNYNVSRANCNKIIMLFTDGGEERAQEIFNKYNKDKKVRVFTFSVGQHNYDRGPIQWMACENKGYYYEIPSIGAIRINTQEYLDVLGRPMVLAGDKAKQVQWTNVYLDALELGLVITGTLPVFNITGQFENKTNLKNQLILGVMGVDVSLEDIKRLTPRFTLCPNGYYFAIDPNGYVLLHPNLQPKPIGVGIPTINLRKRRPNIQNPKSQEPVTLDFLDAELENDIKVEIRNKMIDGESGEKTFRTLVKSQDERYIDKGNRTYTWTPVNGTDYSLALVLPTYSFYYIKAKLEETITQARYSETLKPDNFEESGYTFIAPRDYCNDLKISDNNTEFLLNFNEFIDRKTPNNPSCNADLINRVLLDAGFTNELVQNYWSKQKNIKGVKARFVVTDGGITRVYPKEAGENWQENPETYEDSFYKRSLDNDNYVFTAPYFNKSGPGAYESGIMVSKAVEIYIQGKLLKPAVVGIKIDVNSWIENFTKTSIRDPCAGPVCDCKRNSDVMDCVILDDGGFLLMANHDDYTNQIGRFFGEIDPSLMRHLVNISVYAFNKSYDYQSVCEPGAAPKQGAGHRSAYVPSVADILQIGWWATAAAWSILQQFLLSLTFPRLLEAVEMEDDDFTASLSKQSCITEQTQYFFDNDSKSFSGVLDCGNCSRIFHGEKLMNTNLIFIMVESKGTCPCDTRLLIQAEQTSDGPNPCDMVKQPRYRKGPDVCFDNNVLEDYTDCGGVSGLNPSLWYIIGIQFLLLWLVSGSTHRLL
T1 sequence (P54284 whole entry, further chain): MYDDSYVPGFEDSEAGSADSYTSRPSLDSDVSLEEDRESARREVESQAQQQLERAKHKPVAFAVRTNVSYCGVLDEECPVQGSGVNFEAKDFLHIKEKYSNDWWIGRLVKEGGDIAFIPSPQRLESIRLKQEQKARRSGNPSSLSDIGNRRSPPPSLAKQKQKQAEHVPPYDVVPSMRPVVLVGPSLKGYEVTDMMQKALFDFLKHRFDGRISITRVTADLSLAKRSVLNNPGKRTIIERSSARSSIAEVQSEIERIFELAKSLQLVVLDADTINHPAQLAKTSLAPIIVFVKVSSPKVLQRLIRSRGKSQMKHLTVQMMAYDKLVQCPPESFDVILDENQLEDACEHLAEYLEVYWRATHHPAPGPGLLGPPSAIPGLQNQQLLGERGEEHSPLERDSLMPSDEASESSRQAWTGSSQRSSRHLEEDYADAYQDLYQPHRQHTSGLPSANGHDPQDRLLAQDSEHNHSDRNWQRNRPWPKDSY
Description: Fluorescent assay for CaV2.2 channels using potassium depolarization to induce channel opening (FLIPR, Fluo-4). Format: cell-based. As to conditions: 3 μM test compound, 30 mM KCl, HEK293 cells stably expressing human CaV2.2; read-out: %-Inhib (CaV2.2) @3 μM @30 mM KCl. In outline: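 Channel block was read as the baseline-normalized peak Ca²⁺ signal (Fluo-4, 480/535 nm) after a high-KCl depolarizing addition (210 mM KCl buffer). Beforehand, compound sat 15 min at 25 °C on HEK293 cells carrying human CaV2.2, α2δ/β subunits and Kir2.3, in pH 7.4 buffer with 30 mM KCl.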
For `CS(=O)(=O)C1CCN(C(=O)c2c(-c3ccc(Cl)cc3)cc(C(F)(F)F)n2Cc2ccccc2)C1` (centres unmarked) [SC-185, [1-Benzyl-3-(4-chlorophenyl)-5-(trifluoromethyl)-1H-pyrrol-2-yl]-(3-methylsulfonyl-pyrrolidin-1-yl)-methanone], the inhibition at 3 µM is over 95%.

For `Cc1c(-c2ccc(OC(F)(F)F)cc2)c(C(=O)N2CCOCC2)n(Cc2ccccc2)c1C(F)(F)F` [SC-105, [1-Benzyl-4-methyl-5-(trifluoromethyl)-3-[4-(trifluoromethyloxy)-phenyl]-1H-pyrrol-2-yl]-morpholin-4-yl-methanone], the inhibition at 3 µM is 75 to 95%. To `Cc1c(-c2ccc(Cl)cc2)c(C(=O)N(C)CC(C)(C)C)n(Cc2ccccc2)c1C(F)F` [SC-42, 1-Benzyl-3-(4-chlorophenyl)-5-(difluoro-methyl)-N-(2,2-dimethyl-propyl)-N,4-dimethyl-1H-pyrrole-2-carboxylic acid amide] belongs over 95%. In the case of `Cc1c(-c2ccc(OC(F)(F)F)cc2)c(C(=O)N(C)CCS(C)(=O)=O)n(Cc2ccccc2)c1C(F)(F)F` [SC-236, 1-Benzyl-N,4-dimethyl-N-(2-methylsulfonyl-ethyl)-5-(trifluoromethyl)-3-[4-(trifluoromethyloxy)-phenyl]-1H-pyrrole-2-carboxylic acid amide], the inhibition at 3 µM was over 95%. Take `Cc1c(-c2ccc(Cl)c(F)c2)c(C(=O)N(C)C2CC2)n(Cc2ccccc2)c1C(F)(F)F` [SC-246, 1-Benzyl-3-(4-chloro-3-fluoro-phenyl)-N-cyclopropyl-N,4-dimethyl-5-(trifluoromethyl)-1H-pyrrole-2-carboxylic acid amide]: the inhibition at 3 µM lay in the range of 75 to 95%.

Take `Cc1c(-c2ccc(Cl)cc2F)c(C(=O)N2CCC(CO)C2)n(Cc2ccccc2)c1C(F)(F)F` (centres unmarked) [SC-166, [1-Benzyl-3-(4-chloro-2-fluoro-phenyl)-4-methyl-5-(trifluoromethyl)-1H-pyrrol-2-yl]-[3-(hydroxymethyl)-pyrrolidin-1-yl]-methanone]: the inhibition at 3 µM was over 95%. In the case of `Cc1c(-c2ccc(Cl)cc2F)c(C(=O)N(C)CCCS(C)(=O)=O)n(Cc2ccccc2)c1C(F)(F)F` [SC-161, 1-Benzyl-3-(4-chloro-2-fluoro-phenyl)-N,4-dimethyl-N-(3-methylsulfonyl-propyl)-5-(trifluoromethyl)-1H-pyrrole-2-carboxylic acid amide] it was over 95%; in that of `Cc1c(-c2ccc(Cl)cc2)c(C(=O)N2CCOCC2)n(Cc2cccc(Cl)c2)c1C(F)(F)F` [SC-25, [3-(4-Chlorophenyl)-1-[(3-chlorophenyl)-methyl]-4-methyl-5-(trifluoromethyl)-1H-pyrrol-2-yl]-morpholin-4-yl-methanone], 75 to 95%.
